Patent US20090105283A1, “3-HYDROQUINAZOLIN-4-ONE DERIVATIVES FOR USE AS STEAROYL CoA DESATURASE INHIBITORS” (priority 2007, published 2009)

Target: T1, stearoyl-CoA desaturase (SCD) (Rattus norvegicus, UniProt P07308)
T1 construct: The microsomes were quickly thawed and added to assay buffer so that a concentration of 0.4 mg/ml was achieved; from tissue
T1 sequence (P07308 1-358): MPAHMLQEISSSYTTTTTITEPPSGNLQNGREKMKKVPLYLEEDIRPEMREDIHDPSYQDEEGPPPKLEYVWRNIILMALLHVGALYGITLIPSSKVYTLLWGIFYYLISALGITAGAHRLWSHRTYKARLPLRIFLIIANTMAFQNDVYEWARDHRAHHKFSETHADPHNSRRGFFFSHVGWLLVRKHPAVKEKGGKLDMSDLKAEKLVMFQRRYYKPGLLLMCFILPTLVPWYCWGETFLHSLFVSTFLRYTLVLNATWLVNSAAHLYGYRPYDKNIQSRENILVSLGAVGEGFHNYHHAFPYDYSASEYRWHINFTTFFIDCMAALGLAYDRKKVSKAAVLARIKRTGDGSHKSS
Experiment: SCD assay with rat liver microsomes ([3H]stearoyl CoA, adapted from Talamo and Bloch)
Format: biochemical
Conditions: Table 2 (Example 21, procedures of Example 20); rat liver microsomes, [3H]stearoyl CoA substrate
How it was run: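 Liver microsomes came from diet-induced male Sprague Dawley rats and were used at 0.2 mg/ml final. Assay buffer was Tris pH 7.2 with NADH, ATP, CoA, MgCl2 and 0.1% BSA. Compounds were preincubated 30 min, then reacted 45 min at room temperature with [3H]stearoyl-CoA; after TCA stop and Bio-Bead cleanup, supernatant radioactivity was counted by scintillation.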

Structure (SMILES) | IC50 [nM]
CC(=O)OCC(=O)Nc1ccc2ncn(CCCc3ccccc3)c(=O)c2c1 [compound 24, 2-oxo-2-(4-oxo-3-(3-phenylpropyl)-3,4-dihydroquinazolin-6-ylamino)ethyl acetate] | 1300
CCC(c1ccc(Cl)c(Cl)c1)n1cnc2ccc(NC(=O)COC(C)=O)cc2c1=O (centres unmarked) [compound 25, 2-(3-(1-(3,4-dichlorophenyl)propyl)-4-oxo-3,4-dihydroquinazolin-6-ylamino)-2-oxoethyl acetate] | 500
CCC(c1ccc(Cl)c(Cl)c1)n1cnc2ccc(NC(=O)CO)cc2c1=O (centres unmarked) [compound 26, N-(3-(1-(3,4-dichlorophenyl)propyl)-4-oxo-3,4-dihydroquinazolin-6-yl)-2-hydroxyacetamide] | 3300
O=C(CO)Nc1ccc2ncn(CCCc3ccccc3)c(=O)c2c1 [compound 27, 2-hydroxy-N-(4-oxo-3-(3-phenylpropyl)-3,4-dihydroquinazolin-6-yl)acetamide] | 4500
CC(=O)OCC(=O)Nc1ccc2ncn(Cc3ccccc3C(F)(F)F)c(=O)c2c1 [compound 28, 2-oxo-2-(4-oxo-3-(2-(trifluoromethyl)benzyl)-3,4-dihydroquinazolin-6-ylamino)ethyl acetate] | 1500
O=C(CO)Nc1ccc2ncn(Cc3cccc(-c4ccccc4)c3)c(=O)c2c1 [compound 29, N-(3-(biphenyl-3-ylmethyl)-4-oxo-3,4-dihydroquinazolin-6-yl)-2-hydroxyacetamide] | 3900
CCC(c1ccc(Cl)c(Cl)c1)n1cnc2ccc(NC(=O)OCc3ccccc3)cc2c1=O (centres unmarked) [compound 30, benzyl 3-(1-(3,4-dichlorophenyl)propyl)-4-oxo-3,4-dihydroquinazolin-6-ylcarbamate] | 1400
O=C(CO)Nc1ccc2ncn(Cc3ccc4ccccc4c3)c(=O)c2c1 [compound 31, 2-hydroxy-N-(3-(naphthalen-2-ylmethyl)-4-oxo-3,4-dihydroquinazolin-6-yl)acetamide] | 340
O=C(Nc1ccc2ncn(Cc3ccc4ccccc4c3)c(=O)c2c1)OCc1ccccc1 [compound 32, benzyl 3-(naphthalen-2-ylmethyl)-4-oxo-3,4-dihydroquinazolin-6-ylcarbamate] | 720
O=C(CO)Nc1ccc2c(=O)n(Cc3ccc4ccccc4c3)cnc2c1 [compound 33, 2-hydroxy-N-(3-(naphthalen-2-ylmethyl)-4-oxo-3,4-dihydroquinazolin-7-yl)acetamide] | 2800
C[C@H](c1ccc(Cl)c(C(F)(F)F)c1)n1cnc2ccc(NC(=O)CO)cc2c1=O [compound 34, (R)—N-(3-(1-(4-chloro-3-(trifluoromethyl)phenyl)ethyl)-4-oxo-3,4-dihydroquinazolin-6-yl)-2-hydroxyacetamide] | 480
C[C@@H](c1ccc(Cl)c(Cl)c1)n1cnc2cc(NC(=O)CO)ccc2c1=O [compound 35, (S)—N-(3-(1-(3,4-dichlorophenyl)ethyl)-4-oxo-3,4-dihydroquinazolin-7-yl)-2-hydroxyacetamide] | 1800
C[C@H](c1ccc(Cl)c(Cl)c1)n1cnc2cc(NC(=O)CO)ccc2c1=O [compound 36, (R)—N-(3-(1-(3,4-dichlorophenyl)ethyl)-4-oxo-3,4-dihydroquinazolin-7-yl)-2-hydroxyacetamide] | 58
O=C(CO)Nc1ccc2ncn(CCc3ccc(Cl)cc3)c(=O)c2c1 [compound 37, N-(3-(4-chlorophenethyl)-4-oxo-3,4-dihydroquinazolin-6-yl)-2-hydroxyacetamide] | 20
O=C(CO)Nc1ccc2ncn(CCc3cccc(Cl)c3)c(=O)c2c1 [compound 38, N-(3-(3-chlorophenethyl)-4-oxo-3,4-dihydroquinazolin-6-yl)-2-hydroxyacetamide] | 5800
O=C(CO)Nc1ccc2ncn(CCc3ccc(Cl)cc3Cl)c(=O)c2c1 [compound 39, N-(3-(2,4-dichlorophenethyl)-4-oxo-3,4-dihydroquinazolin-6-yl)-2-hydroxyacetamide] | 4900
O=C(Nc1ccc2ncn(Cc3cccc(C(F)(F)F)c3)c(=O)c2c1)OCc1ccccc1 [compound 40, benzyl 4-oxo-3-(3-(trifluoromethyl)benzyl)-3,4-dihydroquinazolin-6-ylcarbamate] | 1400
O=C(Nc1ccc2ncn(CCCOc3ccccc3C(F)(F)F)c(=O)c2c1)OCc1ccccc1 [compound 41, benzyl 4-oxo-3-(3-(2-(trifluoromethyl)phenoxy)propyl)-3,4-dihydroquinazolin-6-ylcarbamate] | 69
O=C(CO)Nc1ccc2ncn(CCOc3cc(Cl)ccc3Cl)c(=O)c2c1 [compound 42, N-(3-(2-(2,5-dichlorophenoxy)ethyl)-4-oxo-3,4-dihydroquinazolin-6-yl)-2-hydroxyacetamide] | 290

Structure (SMILES) | IC50 [nM]
O=C(CO)Nc1ccc2ncn(CCCOc3cc(Cl)ccc3Cl)c(=O)c2c1 [compound 43, N-(3-(3-(2,5-dichlorophenoxy)propyl)-4-oxo-3,4-dihydroquinazolin-6-yl)-2-hydroxyacetamide] | 55
O=C(Nc1ccc2ncn(CCCOc3cc(Cl)ccc3Cl)c(=O)c2c1)OCc1ccccc1 [compound 44, benzyl 3-(3-(2,5-dichlorophenoxy)propyl)-4-oxo-3,4-dihydroquinazolin-6-ylcarbamate] | 55
O=C(CO)Nc1ccc2ncn(CCCOc3ccccc3C(F)(F)F)c(=O)c2c1 [compound 45, 2-hydroxy-N-(4-oxo-3-(3-(2-(trifluoromethyl)phenoxy)propyl)-3,4-dihydroquinazolin-6-yl)acetamide] | 120
O=C(Nc1ccc2ncn(CCCOc3ccccc3F)c(=O)c2c1)OCc1ccccc1 [compound 46, benzyl 3-(3-(2-fluorophenoxy)propyl)-4-oxo-3,4-dihydroquinazolin-6-ylcarbamate] | 490
CC(=O)OCC(=O)Nc1ccc2ncn(CCCOc3ccccc3F)c(=O)c2c1 [compound 47, 2-(3-(3-(2-fluorophenoxy)propyl)-4-oxo-3,4-dihydroquinazolin-6-ylamino)-2-oxoethyl acetate] | 9800
O=C(CO)Nc1ccc2c(=O)n(CCCOc3ccccc3F)cnc2c1 [compound 48, N-(3-(3-(2-fluorophenoxy)propyl)-4-oxo-3,4-dihydroquinazolin-7-yl)-2-hydroxyacetamide] | 11000
N#Cc1ccccc1OCCCn1cnc2ccc(NC(=O)OCc3ccccc3)cc2c1=O [compound 49, benzyl 3-(3-(2-cyanophenoxy)propyl)-4-oxo-3,4-dihydroquinazolin-6-ylcarbamate] | 480
O=C(Nc1ccc2c(=O)n(CCCOc3cc(Cl)ccc3Cl)cnc2c1)OCc1ccccc1 [compound 50, benzyl 3-(3-(2,5-dichlorophenoxy)propyl)-4-oxo-3,4-dihydroquinazolin-7-ylcarbamate] | 450
O=C(CO)Nc1ccc2c(=O)n(CCCOc3cc(Cl)ccc3Cl)cnc2c1 [compound 51, N-(3-(3-(2,5-dichlorophenoxy)propyl)-4-oxo-3,4-dihydroquinazolin-7-yl)-2-hydroxyacetamide] | 86
Cc1ccccc1OCCCn1cnc2ccc(NC(=O)OCc3ccccc3)cc2c1=O [compound 52, benzyl 4-oxo-3-(3-(o-tolyloxy)propyl)-3,4-dihydroquinazolin-6-ylcarbamate] | 44
Cc1ccccc1OCCCn1cnc2ccc(NC(=O)CO)cc2c1=O [compound 53, 2-hydroxy-N-(4-oxo-3-(3-(o-tolyloxy)propyl)-3,4-dihydroquinazolin-6-yl)acetamide] | 100
O=C(Nc1ccc2ncn(CCCCOc3cc(Cl)ccc3Cl)c(=O)c2c1)OCc1ccccc1 [compound 54, benzyl 3-(4-(2,5-dichlorophenoxy)butyl)-4-oxo-3,4-dihydroquinazolin-6-ylcarbamate] | 150
O=C(CO)Nc1ccc2ncn(CCCCOc3cc(Cl)ccc3Cl)c(=O)c2c1 [compound 55, N-(3-(4-(2,5-dichlorophenoxy)butyl)-4-oxo-3,4-dihydroquinazolin-6-yl)-2-hydroxyacetamide] | 240
O=C(CO)Nc1ccc2ncn(CCCc3ccccc3Cl)c(=O)c2c1 [compound 56, N-(3-(3-(2-chlorophenyl)propyl)-4-oxo-3,4-dihydroquinazolin-6-yl)-2-hydroxyacetamide] | 430
O=C(Nc1ccc2ncn(CCOc3ccccc3Cl)c(=O)c2c1)OCc1ccccc1 [compound 57, benzyl 3-(2-(2-chlorophenoxy)ethyl)-4-oxo-3,4-dihydroquinazolin-6-ylcarbamate] | 180
O=C(CO)Nc1ccc2ncn(CCOc3ccccc3Cl)c(=O)c2c1 [compound 58, N-(3-(2-(2-chlorophenoxy)ethyl)-4-oxo-3,4-dihydroquinazolin-6-yl)-2-hydroxyacetamide] | 340
O=C(Nc1ccc2ncn(CCCOc3ccccc3Cl)c(=O)c2c1)OCc1ccccc1 [compound 59, benzyl 3-(3-(2-chlorophenoxy)propyl)-4-oxo-3,4-dihydroquinazolin-6-ylcarbamate] | 45
O=C(CO)Nc1ccc2ncn(CCCOc3ccccc3Cl)c(=O)c2c1 [compound 60, N-(3-(3-(2-chlorophenoxy)propyl)-4-oxo-3,4-dihydroquinazolin-6-yl)-2-hydroxyacetamide] | 450
O=C(CO)Nc1ccc2ncn(Cc3cccc(COc4cc(Cl)ccc4Cl)c3)c(=O)c2c1 [compound 61, N-(3-(3-((2,5-dichlorophenoxy)methyl)benzyl)-4-oxo-3,4-dihydroquinazolin-6-yl)-2-hydroxyacetamide] | 490
